Here are results for 1 substance from PMC12109337, “Engineered Fluorescent Variants of Lactadherin C2 Domain for Phosphatidylserine Detection in Flow Cytometry” (Biomolecules, 2025).

For one experiment, the target named is T1, axV-mNG (Homo sapiens, UniProt P08758).
T1 construct: gene ANXA5; N-terminal 6xHis, annexin V with C-terminal mNeonGreen fusion (also printed mNG-axV), tags kept, pET-28a(+), E. coli Rosetta-Gami 2(DE3)pLysS, Ni-NTA
T1 sequence (P08758 2-320): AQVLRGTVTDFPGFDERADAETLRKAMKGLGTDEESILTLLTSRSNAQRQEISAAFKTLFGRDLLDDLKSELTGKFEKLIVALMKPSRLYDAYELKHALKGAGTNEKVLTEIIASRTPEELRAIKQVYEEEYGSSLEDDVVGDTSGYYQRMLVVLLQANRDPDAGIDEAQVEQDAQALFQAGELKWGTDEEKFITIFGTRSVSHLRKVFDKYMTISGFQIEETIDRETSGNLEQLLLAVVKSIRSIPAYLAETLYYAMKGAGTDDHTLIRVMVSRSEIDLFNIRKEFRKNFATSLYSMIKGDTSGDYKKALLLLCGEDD
Description: equilibrium binding to liposomes, flow cytometry. Conditions: 20:80 PS/PC liposomes, not free lipid; Kd is the protein concentration at half occupation; Hill coefficient ~1.2; HBS pH 7.4 with 2.5 mM CaCl2; 1 h; read-out: Kd (apparent, Hill). A general note: In flow cytometry, cells or beads pass a laser one at a time.

In the next experiment the target is T2, mNG-lactC2 (Bos taurus, UniProt Q95114).
T2 construct: gene MFGE8; C2 domain (residues 270-427), N-terminal 6xHis and mNeonGreen fusion kept, pET-28a(+), E. coli Rosetta-Gami 2(DE3)pLysS, Ni-NTA
T2 sequence (Q95114 270-427): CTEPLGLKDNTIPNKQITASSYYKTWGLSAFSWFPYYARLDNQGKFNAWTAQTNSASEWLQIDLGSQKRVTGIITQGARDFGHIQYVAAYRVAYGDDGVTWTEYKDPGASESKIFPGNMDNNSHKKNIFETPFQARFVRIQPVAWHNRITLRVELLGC
Description: equilibrium binding to liposomes, flow cytometry. As to conditions: 20:80 PS/PC liposomes, not free lipid; Kd is the protein concentration at half occupation; Hill coefficient ~1.2; HBS pH 7.4, no calcium; 1 h; read-out: Kd (apparent, Hill).

As to “1,2-diacyl-sn-glycero-3-phospho-L-serine [phosphatidylserine]”, the Kd on axV-mNG worked out at 10 nM; on mNG-lactC2, 107 nM.
